Literature values as cited in patent publication EP0454783B1, “SITE SPECIFIC IN-VIVO ACTIVATION OF THERAPEUTIC DRUGS” (Akzo Nobel N.V., priority 1989, dated 1990).

Target: lysozyme (Gallus gallus, UniProt P00698)
Details: Imoto et al, 1972

Chain of lysozyme (P00698 19-147): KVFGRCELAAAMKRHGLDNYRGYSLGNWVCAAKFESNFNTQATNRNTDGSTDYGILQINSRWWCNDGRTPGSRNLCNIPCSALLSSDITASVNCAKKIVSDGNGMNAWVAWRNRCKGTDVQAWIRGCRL

## CC(=O)N[C@H]1[C@H](O[C@H]2[C@H](O)[C@@H](NC(C)=O)[C@H](O[C@H]3[C@H](O)[C@@H](NC(C)=O)C(O)O[C@@H]3CO)O[C@@H]2CO)O[C@H](CO)[C@@H](O[C@@H]2O[C@H](CO)[C@@H](O[C@@H]3O[C@H](CO)[C@@H](O[C@@H]4O[C@H](CO)[C@@H](O)[C@H](O)[C@H]4NC(C)=O)[C@H](O)[C@H]3NC(C)=O)[C@H](O)[C@H]2NC(C)=O)[C@@H]1O (stereo partly shown) [chitohexaose]
  fold higher rate of cleavage by lysozyme than chitotriose: 30,000 fold
